# Reference: patent US7342016B2, “Farnesyl protein transferase inhibitors as antitumor agents” (Schering Corporation, priority 2000, dated 2008)
# Values joined by “and” are separate entries in the source; they are usually repeats but may differ in a detail not shown here. Equal entries are not always repeated.
# Tests used:
# Assay in all cases: In vivo anti-tumor study, s.c. tumor in athymic nu/nu female mice, percent inhibition of tumor growth
# [1] = test system: mouse fibroblasts transformed with H-Ras; conditions: po, x2
# Protocol: (§1) Various tumor cells (5×10^5 to 8×10^6) were innoculated subcutaneously into the flank of 5-6 week old athymic nu/nu female mice. Three tumor cell models were used: mouse fibroblasts transformed with H-Ras; HTB-177 human non small cell lung cancer cells or LOX human melanoma cells. Animals were treated with beta cyclodextran vehicle only or compounds in vehicle twice a day (BID) or once a day (QD) for 7 days per week for 1 (×1), 2 (×2) or 3 (×3) weeks. The percent inhibition of tumor growth relative to vehicle controls were determined by tumor measurements.
# [2] = test system: HTB-177 human non small cell lung cancer cells; conditions: po, x3
# Protocol: as §1
# LOX human melanoma cells = conditions: po, BID, x1
# Protocol: as §1
structure (smiles),measurement,setting,value
Cc1nccn1CC1=Cc2cccnc2C(N2CCN(C(=O)Nc3ccc(C#N)cc3)CC2)c2ccc(Cl)cc21 (stereo not shown) [(372)],Average % Tumor Inhibition,"[1]; 6.6 MPK, BID",19%
same,Average % Tumor Inhibition,"[1]; 10 MPK, BID",70%
same,Average % Tumor Inhibition,"[1]; 20 MPK, BID",59%
same,Average % Tumor Inhibition,"[1]; 20 MPK, QD",55%
same,Average % Tumor Inhibition,"[1]; 40 MPK, BID",92%
same,Average % Tumor Inhibition,"[1]; 60 MPK, BID",98%
same,Average % Tumor Inhibition,"[1]; 80 MPK, QD",91%
same,Average % Tumor Inhibition,"[2]; 20 MPK, BID",43% and 47%
same,Average % Tumor Inhibition,"[2]; 40 MPK, BID",79%
same,Average % Tumor Inhibition,"[2]; 40 MPK, QD",11%
same,Average % Tumor Inhibition,"[2]; 60 MPK, BID",87%
same,Average % Tumor Inhibition,"[2]; 80 MPK, BID",96%
same,Average % Tumor Inhibition,"[2]; 120 MPK, QD",54%
same,Average % Tumor Inhibition,LOX human melanoma cells; 15 MPK,20.9%
same,Average % Tumor Inhibition,LOX human melanoma cells; 30 MPK,54.8%
same,Average % Tumor Inhibition,LOX human melanoma cells; 60 MPK,90.3%
